Assay results from article PMC10305039, “Triphenylphosphonium (TPP)-Conjugated Quinolone Analogs Displayed Significantly Enhanced Fungicidal Activity Superior to Its Parent Molecule” (Journal of Fungi, 2023).

Tested on: T1, cytochrome bc1 complex (complex III) of P. capsici
T1 construct: gene cob; native complex III in freeze-thawed hyphal mitochondria isolated by differential centrifugation; not purified; with Cytochrome c1, heme protein, mitochondrial; Cytochrome b-c1 complex subunit Rieske, mitochondrial
Assay: complex III activity assay kit (Genmed GMS50009), hyphal mitochondria
Type: biochemical, Phytophthora capsici
Settings: freeze-thawed mitochondria; Qi site proposed, not shown

## Cc1cc(=O)c2ccccc2n1OC(=O)CCCCCCCCCC[P+](c1ccccc1)(c1ccccc1)c1ccccc1 [mitoQNO11]
  IC50: 3.33 µM
